# Columns and labels:
# human ROCKα/ROCKII mix = target: T1, human ROCKα/ROCKII mix (Homo sapiens, UniProt O75116); assay: Biochemical assay for ROCK (fluorescence polarization, ROCK IMAP Kit); conditions: Table 2, compounds of Formula XIII
# T1 construct: purchased Upstate Biotechnology 14-451
# PKC epsilon = target: T2, PKC epsilon (Homo sapiens, UniProt Q02156); assay: Biochemical assay for PKC epsilon (fluorescence polarization, Protein Kinase C Assay Kit, Red); conditions: Table 2, compounds of Formula XIII; read-out: IC50 μM PKCε
# T2 construct: purchased Invitrogen P2282
# T2 sequence (Q02156 1-737): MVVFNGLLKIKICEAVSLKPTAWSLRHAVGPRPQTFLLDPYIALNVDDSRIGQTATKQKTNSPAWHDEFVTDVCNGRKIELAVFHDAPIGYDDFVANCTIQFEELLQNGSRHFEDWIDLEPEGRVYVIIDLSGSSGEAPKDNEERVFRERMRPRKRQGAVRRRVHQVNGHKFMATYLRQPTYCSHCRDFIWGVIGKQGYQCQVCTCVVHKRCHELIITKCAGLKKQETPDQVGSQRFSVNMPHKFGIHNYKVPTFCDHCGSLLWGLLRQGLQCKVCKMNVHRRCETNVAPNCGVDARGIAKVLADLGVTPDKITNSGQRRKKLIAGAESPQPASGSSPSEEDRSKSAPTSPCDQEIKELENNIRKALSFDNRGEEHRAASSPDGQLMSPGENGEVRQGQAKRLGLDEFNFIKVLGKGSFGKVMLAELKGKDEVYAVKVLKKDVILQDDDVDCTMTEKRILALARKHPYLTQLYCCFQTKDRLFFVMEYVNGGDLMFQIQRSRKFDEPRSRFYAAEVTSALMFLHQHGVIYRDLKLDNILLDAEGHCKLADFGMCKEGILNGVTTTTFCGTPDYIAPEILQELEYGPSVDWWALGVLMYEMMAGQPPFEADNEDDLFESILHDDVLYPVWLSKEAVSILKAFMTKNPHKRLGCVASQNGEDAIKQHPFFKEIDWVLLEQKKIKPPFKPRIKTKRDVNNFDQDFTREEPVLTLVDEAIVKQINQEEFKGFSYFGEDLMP
# In short: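 PKC epsilon at 10 ng/ml final was preincubated 30 min at room temperature with compound in HEPES pH 7.4 with DTT and Triton X-100. ATP/protein substrate was then added in buffer with MgCl2 and CaCl2 for 80 min. The reaction was stopped with EDTA, phosphorylation was detected by fluorescence polarization with rhodamine tracer and anti-phosphoserine antibody, and IC50 values came from curve fits.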
# T1 sequence (O75116 11-552 limits assumed): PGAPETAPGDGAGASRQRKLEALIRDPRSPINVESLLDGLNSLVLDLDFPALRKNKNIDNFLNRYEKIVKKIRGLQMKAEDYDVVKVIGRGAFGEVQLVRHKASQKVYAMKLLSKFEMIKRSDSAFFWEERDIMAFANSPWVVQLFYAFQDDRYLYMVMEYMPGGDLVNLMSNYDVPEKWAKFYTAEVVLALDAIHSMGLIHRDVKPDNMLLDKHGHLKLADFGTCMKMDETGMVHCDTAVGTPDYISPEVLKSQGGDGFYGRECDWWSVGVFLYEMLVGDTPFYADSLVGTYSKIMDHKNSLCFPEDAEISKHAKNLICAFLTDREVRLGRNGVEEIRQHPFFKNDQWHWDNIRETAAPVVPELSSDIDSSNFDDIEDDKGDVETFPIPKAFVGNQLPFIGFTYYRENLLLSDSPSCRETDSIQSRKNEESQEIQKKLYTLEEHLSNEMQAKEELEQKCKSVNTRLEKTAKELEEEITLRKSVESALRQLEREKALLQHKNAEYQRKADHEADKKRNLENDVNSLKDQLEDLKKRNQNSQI
SMILES,IC50 (human ROCKα/ROCKII mix),IC50 (PKC epsilon)
"NC(CNC(=O)c1nccc2ccccc12)c1ccc(C(=O)Nc2ccncc2)cc1 (stereo not drawn) [Compound 110, Isoquinoline-1-carboxylic acid {2-amino-2-[4-(pyridin-4-ylcarbamoyl)-phenyl]-ethyl}-amide]",0.5 to 5 µM,0.5 to 5 µM
"NC(CNC(=O)c1ccnc2ccccc12)c1ccc(C(=O)Nc2ccncc2)cc1 (stereo not drawn) [Compound 111, Quinoline-4-carboxylic acid {2-amino-2-[4-(pyridin-4-ylcarbamoyl)-phenyl]-ethyl}-amide]",0.5 to 5 µM,0.5 to 5 µM
"NC(CNC(=O)c1cnnc2ccccc12)c1ccc(C(=O)Nc2ccncc2)cc1 (stereo not drawn) [Compound 113, Cinnoline-4-carboxylic acid {2-amino-2-[4-(pyridin-4-ylcarbamoyl)-phenyl]-ethyl}-amide]",0.5 to 5 µM,0.5 to 5 µM
"NC(CNC(=O)c1ccsc1)c1ccc(C(=O)Nc2ccncc2)cc1 (stereo not drawn) [Compound 115, Thiophene-3-carboxylic acid {2-amino-2-[4-(pyridin-4-ylcarbamoyl)-phenyl]-ethyl}-amide]",0.05 to 0.5 µM,0.5 to 5 µM
"NC(CNC(=O)c1cccs1)c1ccc(C(=O)Nc2ccncc2)cc1 (stereo not drawn) [Compound 116, Thiophene-2-carboxylic acid {2-amino-2-[4-(pyridin-4-ylcarbamoyl)-phenyl]-ethyl}-amide]",0.05 to 0.5 µM,0.05 to 0.5 µM
"Cc1ccc(C(=O)NCC(N)c2ccc(C(=O)Nc3ccncc3)cc2)s1 (stereo not drawn) [Compound 117, 5-Methyl-thiophene-2-carboxylic acid {2-amino-2-[4-(pyridin-4-ylcarbamoyl)-phenyl]-ethyl}-amide]",0.5 to 5 µM,0.5 to 5 µM
"CC(=NOC(C)(C)C)c1ccc(C(=O)NCC(N)c2ccc(C(=O)Nc3ccncc3)cc2)s1 (stereo not drawn) [Compound 118, 5-(1-tert-Butoxyimino-ethyl)-thiophene-2-carboxylic acid {2-amino-2-[4-(pyridin-4-ylcarbamoyl)-phenyl]-ethyl}-amide]",0.5 to 5 µM,5 to 50 µM
"NC(CNC(=O)c1ccoc1)c1ccc(C(=O)Nc2ccncc2)cc1 (stereo not drawn) [Compound 119, Furan-3-carboxylic acid {2-amino-2-[4-(pyridin-4-ylcarbamoyl)-phenyl]-ethyl}-amide]",0.05 to 0.5 µM,0.5 to 5 µM
"NC(CNC(=O)c1ccc([N+](=O)[O-])o1)c1ccc(C(=O)Nc2ccncc2)cc1 (stereo not drawn) [Compound 120, 5-Nitro-furan-2-carboxylic acid {2-amino-2-[4-(pyridin-4-ylcarbamoyl)-phenyl]-ethyl}-amide]",0.5 to 5 µM,0.5 to 5 µM
"Cn1cccc1C(=O)NCC(N)c1ccc(C(=O)Nc2ccncc2)cc1 (stereo not drawn) [Compound 121, 1-Methyl-1H-pyrrole-2-carboxylic acid {2-amino-2-[4-(pyridin-4-ylcarbamoyl)-phenyl]-ethyl}-amide]",0.5 to 5 µM,0.5 to 5 µM
"NC(CNC(=O)c1c[nH]cn1)c1ccc(C(=O)Nc2ccncc2)cc1 (stereo not drawn) [Compound 122, 1H-Imidazole-4-carboxylic acid {2-amino-2-[4-(pyridin-4-ylcarbamoyl)-phenyl]-ethyl}-amide]",0.5 to 5 µM,5 to 50 µM
"Cc1nc(-c2ccccc2)sc1C(=O)NCC(N)c1ccc(C(=O)Nc2ccncc2)cc1 (stereo not drawn) [Compound 126, 4-Methyl-2-Phenyl-thiazole-5-carboxylic acid {2-amino-2-[4-(pyridin-4-ylcarbamoyl)-phenyl]-ethyl}-amide]",0.5 to 5 µM,5 to 50 µM
"NC(CNC(=O)c1ccc2[nH]nnc2c1)c1ccc(C(=O)Nc2ccncc2)cc1 (stereo not drawn) [Compound 127, 1H-Benzotriazole-5-carboxylic acid {2-amino-2-[4-(pyridin-4-ylcarbamoyl)-phenyl]-ethyl}-amide]",0.5 to 5 µM,5 to 50 µM
"COc1ccc2[nH]c(C(=O)NCC(N)c3ccc(C(=O)Nc4ccncc4)cc3)cc2c1 (stereo not drawn) [Compound 128, 5-Methoxy-1H-indole-2-carboxylic acid {2-amino-2-[4-(pyridin-4-ylcarbamoyl)-phenyl]-ethyl}-amide]",0.5 to 5 µM,5 to 50 µM
"NC(CNC(=O)c1cc2cc(Cl)ccc2o1)c1ccc(C(=O)Nc2ccncc2)cc1 (stereo not drawn) [Compound 134, 5-Chloro-benzofuran-2-carboxylic acid {2-amino-2-[4-(pyridin-4-ylcarbamoyl)-phenyl]-ethyl}-amide]",0.5 to 5 µM,5 to 50 µM
"NC(CNC(=O)Cc1ccc2ccccc2c1)c1ccc(C(=O)Nc2ccncc2)cc1 (stereo not drawn) [Compound 135, 4-[1-Amino-2-(2-naphtalen-2-yl-acetylamino)-ethyl]-N-pyridin-4-yl-bennzamide]",0.5 to 5 µM,5 to 50 µM
"NC(CNC(=O)C(c1ccccc1)C1CCCC1)c1ccc(C(=O)Nc2ccncc2)cc1 (stereo not drawn) [Compound 136, 4-[1-Amino-2-(2-cyclopentyl-2-phenyl-acetylamino)-ethyl]-N-pyridin-4-yl-bennzamide]",0.5 to 5 µM,5 to 50 µM
"NC(CNC(=O)C1(c2ccccc2)CC1)c1ccc(C(=O)Nc2ccncc2)cc1 (stereo not drawn) [Compound 137, 4-{1-Amino-2-[(1-phenyl-cyclopropanecarbonyl)-amino]-ethyl}-N-pyridin-4-yl-benzamide]",0.5 to 5 µM,0.05 to 0.5 µM
"COc1ccccc1CC(=O)NCC(N)c1ccc(C(=O)Nc2ccncc2)cc1 (stereo not drawn) [Compound 138, 4-{1-amino-2-[2-(2-methoxy-phenyl)-acetylamino]-ethyl}-N-pyridin-4-yl-benzamide]",0.5 to 5 µM,5 to 50 µM
"COc1cccc(CC(=O)NCC(N)c2ccc(C(=O)Nc3ccncc3)cc2)c1 (stereo not drawn) [Compound 139, 4-{1-amino-2-[2-(3-methoxy-phenyl)-acetylamino]-ethyl}-N-pyridin-4-yl-benzamide]",0.05 to 0.5 µM,0.5 to 5 µM

# More lines, now with the values ahead:
IC50 (human ROCKα/ROCKII mix),IC50 (PKC epsilon),SMILES
0.5 to 5 µM,5 to 50 µM,"NC(CNC(=O)c1ccc(=O)[nH]n1)c1ccc(C(=O)Nc2ccncc2)cc1 (stereo not drawn) [Compound 109, 6-Oxo-1,6-dihydro-pyridazine-3-carboxylic acid {2-amino-2-[4-(pyridin-4-ylcarbamoyl)-phenyl]-ethyl}-amide]"
0.5 to 5 µM,5 to 50 µM,"NC(CNC(=O)c1ccc2ncccc2c1)c1ccc(C(=O)Nc2ccncc2)cc1 (stereo not drawn) [Compound 114, Quinoline-6-carboxylic acid {2-amino-2-[4-(pyridin-4-ylcarbamoyl)-phenyl]-ethyl}-amide]"
0.5 to 5 µM,5 to 50 µM,"Nc1c(C(=O)NCC(N)c2ccc(C(=O)Nc3ccncc3)cc2)cnn1-c1ccc(F)cc1 (stereo not drawn) [Compound 123, 5-Amino-1-(4-fluorophenyl)-1H-pyrazole-4-carboxylic acid {2-amino-2-[4-(pyridin-4-ylcarbamoyl)-phenyl]-ethyl}-amide]"
0.5 to 5 µM,5 to 50 µM,"NC(CNC(=O)c1csc(-c2ccccc2)n1)c1ccc(C(=O)Nc2ccncc2)cc1 (stereo not drawn) [Compound 124, 2-Phenyl-thiazole-4-carboxylic acid {2-amino-2-[4-(pyridin-4-ylcarbamoyl)-phenyl]-ethyl}-amide]"
0.5 to 5 µM,0.5 to 5 µM,"NC(CNC(=O)c1csc(Nc2ccc(F)cc2)n1)c1ccc(C(=O)Nc2ccncc2)cc1 (stereo not drawn) [Compound 125, 2-(4-Fluoro-phenylamino)-thiazole-4-carboxylic acid {2-amino-2-[4-(pyridin-4-ylcarbamoyl)phenyl]-ethyl}-amide]"
0.5 to 5 µM,5 to 50 µM,"NC(CNC(=O)c1cc2cc(F)ccc2[nH]1)c1ccc(C(=O)Nc2ccncc2)cc1 (stereo not drawn) [Compound 129, 5-Fluoro-1H-indole-2-carboxylic acid {2-amino-2-[4-(pyridin-4-ylcarbamoyl)-phenyl]-ethyl}-amide]"
0.5 to 5 µM,5 to 50 µM,"NC(CNC(=O)c1cc2ccccc2[nH]1)c1ccc(C(=O)Nc2ccncc2)cc1 (stereo not drawn) [Compound 130, 1H-Indole-2-carboxylic acid {2-amino-2-[4-(pyridin-4-ylcarbamoyl)-phenyl]-ethyl}-amide]"
0.5 to 5 µM,5 to 50 µM,"NC(CNC(=O)c1ccc2cc[nH]c2c1)c1ccc(C(=O)Nc2ccncc2)cc1 (stereo not drawn) [Compound 131, 1H-Indole-6-carboxylic acid {2-amino-2-[4-(pyridin-4-ylcarbamoyl)-phenyl]-ethyl}-amide]"
0.05 to 0.5 µM,0.5 to 5 µM,"NC(CNC(=O)c1ccc2[nH]ccc2c1)c1ccc(C(=O)Nc2ccncc2)cc1 (stereo not drawn) [Compound 132, 1H-Indole-5-carboxylic acid {2-amino-2-[4-(pyridin-4-ylcarbamoyl)-phenyl]-ethyl}-amide]"
0.05 to 0.5 µM,5 to 50 µM,"COc1cccc2cc(C(=O)NCC(N)c3ccc(C(=O)Nc4ccncc4)cc3)oc12 (stereo not drawn) [Compound 133, 7-Methoxy-benzofuran-2-carboxylic acid {2-amino-2-[4-(pyridin-4-ylcarbamoyl)-phenyl]-ethyl}-amide]"

# Reference: US20100168102A9, “Amide Derivatives as Kinase Inhibitors” (Devgen NV, priority 2005, published 2010)
